Assay results reported in article PMC11858653, “Design, Synthesis and Bioactive Evaluation of Topo I/c-MYC Dual Inhibitors to Inhibit Oral Cancer via Regulating the PI3K/AKT/NF-κB Signaling Pathway” (Molecules, 2025).

Columns and labels:
Cal27 = assay: MTT antiproliferative assay, Cal27; assay type: cell-based, human; settings: 48 h, mean ± SD
Procedure: (§1) Having evaluated their Topo I inhibitory activity, the antiproliferative activity of the target compounds against some common human cancer cell lines (NCI-H460, A549, ACHN, Cal27 and MGC-803) and one normal cell line (SV-HUC-1) was tested via an MTT assay. TPT, the first Topo I inhibitor approved in clinics, and cisplatin (CDDP), a commonly selected anticancer drug for treating head and neck malignancies, were used as the positive controls.
(§2) Human oral cancer Cal27 cells were seeded in 96-well plates and incubated overnight in 180 μL of medium containing 10% Fetal Bovine Serum (Gibco, San Francisco, CA, USA). […] Then, 10 μL of 5 mg/mL MTT solution was added to each well and incubated at 37 °C for 4 h. After 4 h of incubation at 37 °C, the MTT-containing medium was removed and DMSO was added to each well and the absorbance at 570 nm and 630 nm was measured using a microplate reader (CYTATION 3, Burton, Westwood, NJ, USA). Survival/% = (mean OD of experimental group/mean OD of control group) × 100%. Each test was repeated at least three times.

ACHN = assay: MTT antiproliferative assay, ACHN; assay type: cell-based, human; settings: 48 h, mean ± SD
Procedure: as §1, §2

[1] = tested on: human oral cancer Cal27 xenograft tumor; assay: In vivo antitumor activity, Cal27 xenograft; set-up: species or system BALB/c nude mice; settings: 2 mg/kg i.p. once every other day, 21 days
Procedure: Nude mouse organ and tumor tissues fixed with neutral formalin solution were paraffin-embedded according to the conventional processing method. Sections were cut to a thickness of approximately 5 μm, placed on glass slides and dewaxed in an oven at 60 °C, stained for H&E and immunohistochemistry and finally visualized with the Cytation 5 imaging system.
For this assay, 130 SPF-grade BALB/c mice (female, 4–6 weeks old, 18–20 g) were obtained from Chang Zhou Cavens Laboratory Animal Ltd. (Changzhou, China). The in vivo activity experiments were commissioned by Nanjing OG Pharmaceuticals, Co., Ltd. (Nanjing, China) All mice were housed in plastic cages, fed, and watered under standard conditions and air filtration (22 ± 2 °C; 12 h light/dark cycles). Under aseptic conditions, human oral cancer Cal27 cells were inoculated subcutaneously in the right axilla of BALB/c nude mice. When the tumors had grown to about 85 mm^3, 24 […] mice with good growth status and good homogeneity of tumor size were selected and randomly divided into the following four groups of six mice each: (1) the model group; (2) the low-dose group; (3) the high-dose group; and (4) the positive drug group. The drug dose in the low-dose group was 10 mg/kg, which was injected intraperitoneally once every other day, for the duration of 21 days of administration; the drug dose in the high-dose group was 20 mg/kg, which was injected intraperitoneally once every other day, for the duration of 21 days of administration; and the drug dose in the cisplatin group was 2 mg/kg, which was injected intraperitoneally once every other day, for the duration of 21 days of administration. Normal tissues of the heart, liver, spleen, lung and kidney and half of the tumor tissues were fixed with 4% formalin solution and embedded in paraffin for histological analysis; the other half of the tumor tissues were preserved in liquid nitrogen, and the supernatant was extracted after milling the tissues and detected by Western blot.

NCI-H460 = assay: MTT antiproliferative assay, NCI-H460; assay type: cell-based, human; settings: 48 h, mean ± SD
Procedure: as §1, §2

A549 = assay: MTT antiproliferative assay, A549; assay type: cell-based, human; settings: 48 h, mean ± SD
Procedure: as §1, §2

MGC-803 = assay: MTT antiproliferative assay, MGC-803; assay type: cell-based, human; settings: 48 h, mean ± SD
Procedure: as §1, §2

Cal27 cells = assay: MTT cell survival with autophagy inhibitor CQ; assay type: cell-based, human; settings: Cal27, 20 μM alone
Procedure: Meanwhile, to further confirm that compound 7be could induce autophagic death in Cal27 cells, we used a classical autophagy inhibitor, chloroquine (CQ), to evaluate the role of autophagy in compound 7be-mix-induced cell death.
Human oral cancer Cal27 cells were seeded in 96-well plates and incubated overnight in 180 μL of medium containing 10% Fetal Bovine Serum (Gibco, San Francisco, CA, USA). On the following day, compounds at final concentrations of 2.5, 5, 10 and 20 μM were added to each well and incubated for 48 h. Then, 10 μL of 5 mg/mL MTT solution was added to each well and incubated at 37 °C for 4 h. After 4 h of incubation at 37 °C, the MTT-containing medium was removed and DMSO was added to each well and the absorbance at 570 nm and 630 nm was measured using a microplate reader (CYTATION 3, Burton, Westwood, NJ, USA). Survival/% = (mean OD of experimental group/mean OD of control group) × 100%. Each test was repeated at least three times.

SMILES	IC50 (Cal27) [µM]	IC50 (ACHN) [µM]	relative tumor proliferation rate [1] [%]	tumor inhibition rate / tumor growth inhibition (TGI) [1] [%]	tumor inhibition rate / tumor growth inhibition (TGI) ([1]; listed as cisplatin) [%]	IC50 (NCI-H460) [µM]	IC50 (A549) [µM]	IC50 (MGC-803) [µM]	cell survival rate versus control group (Cal27 cells; 24 h)	cell survival rate (Cal27 cells; 48 h)
[NH2][Pt]([NH2])([Cl])[Cl] [CDDP, cisplatin, reference compound]	8.81 ± 1.73	12.4 ± 1.31	39.8	59.44	59.4	12.2 ± 1.01	8.69 ± 1.05	12.3 ± 0.8	–	–
CCN(CC)CCCC(C)Nc1ccnc2cc(Cl)ccc12 (stereo not shown) [CQ, chloroquine]	–	–	–	–	–	–	–	–	not significantly different	more than 80%
